Data as given in patent publication US12186283B2, “Bismuth-thiol compositions and methods of use” (Microbion Corporation, priority 2018, dated 2025).
In brackets after ≈: the same amount, converted by molar mass. Several values for one entry are separate records, joined by “and”; a condition that tells them apart may be missing. Equal entries are not always repeated. Where two headings read alike, the source gives them in different places. Marks after values point to notes of the source that are not given here.

Columns and labels:
[1] = test system: Pseudomonas aeruginosa strain PA01; assay: Bacterial killing curves with and without 10% CF patient sputum; details: for bactericidal activity: PA01, 0.1 μg/mL; for effect of CF patient sputum on bactericidal activity: PA01, 10% CF patient sputum
S. aureus ATCC 29213 [2] = details: control strain ATCC 29213 S. aureus; per CLSI M100-S24 or provided by Microbion; cited from earlier work
[3] = test system: Achromobacter spp. biofilm; assay: Activity against biofilms; details: tested up to 250 μg/mL
Acinetobacter baumannii [4] = assay: Broth microdilution MIC (Example 11); format: cell-based; details: A. baumannii MMX 3373; Sensitive
[5] = test system: Burkholderia spp. (B. cepacia complex); assay: MIC against CF isolates (Example 5); format: cell-based; details: Table 4A; strain AU197, B. cenocepacia (B cepacia complex)
[6] = test system: Enterococcus spp. (E. faecalis, E. faecium); assay: Broth microdilution MIC (Example 11); format: cell-based; details: enterococci incl. vancomycin-resistant E. faecalis and E. faecium
S. aureus ATCC 29213 [7] = assay: Broth microdilution MIC, QC organism (Example 13, Table 110); format: cell-based, Staphylococcus aureus
From the text: MECs were only reported where observed.

Pseudomonas aeruginosa = details: P. aeruginosa ATCC 27853, QC organism; cited from earlier work
P. aeruginosa = P. aeruginosa isolate 103, CLSI QC range in parenthesis, cited from earlier work
[8] = Hematology after face-mask inhalation in beagle dogs; format: in vivo; details: inhalation Day 0 and 7, animal and Avg lines, samplings not labelled
Experimental: The objective of the study is to determine the maximum tolerated dose (MTD) or maximum feasible dose (MFD) of inhaled bismuth ethanedithiol (BisEDT) after face-mask inhalation exposure (up to 60 min of exposure) in male and female beagle dogs. Animals will be monitored for up to 14 days following the first day of exposure and blood will be collected at predetermined timepoints to analyze the pharmacokinetics of BisEDT. In addition, a coagulation panel will be conducted prior to necropsy. At the conclusion of the study animals will be euthanized and undergo necropsy during which the respiratory tract will be harvested for bioanalytical and histopathological analysis. Results obtained will inform a follow up repeated dose GLP study. This test article is currently being developed as a novel formulation of a broad spectrum antimicrobial/antibiofilm agent, indicated for the treatment of lung infections in patients with cystic fibrosis.
Once adequately conditioned to the restraint device and face-masks, the animals are individually exposed to the test article aerosols. Animals receive a single face-mask inhalation exposure in a ramp study design to test article aerosols for up to 60 min. Animal observations during and post exposure determine the tolerance of inhaled BisEDT aerosols.
Group 1 (vehicle) are exposed to a vehicle atmosphere for 30 minutes. Group 2 (50 μg/kg) are exposed to BisEDT for 30 minutes. Target concentrations and exposure durations for Groups 3-5 are based on the presence of any toxicity via clinical observations or gross necropsy findings. In each of Groups 3-5, if no adverse clinical signs of toxicity are observed, the next groups' exposure will be conducted at a higher target dose. If adverse clinical signs of toxicity are observed, the next groups' exposure will be conducted at a lower target dose. This approach is repeated for all BisEDT doses. The final documented exposure duration is the maximum tolerated dose or the maximum feasible dose.
Blood are collected for pharmacokinetic (PK) analysis prior to exposure, then at 4 hr (±5 min) post exposure, and again on Day 1, Day 2, Day 7 (pre- and 4 hr (±5 min)-post exposure), Day 8, Day 9, Day 10, Day 11, Day 12, Day 13, and Day 14. A total of 0.25 mL is collected at each timepoint. No PK blood is collected from the vehicle control (Group 1) animals; only animals exposed to BisEDT have blood collected for PK analysis. Collected samples are flash frozen without processing for shipment to Medpace for bioanalytical analysis. Additional blood is collected from all animals in all groups for hematology (1 mL) and clinical chemistry (1 mL) at baseline, Day 7 (pre-exposure), and again at euthanasia. Blood (2-2 mL) is collected from all animals at necropsy for coagulation analysis (d-Dimer, fibrinogen, PT, and PTT).
For hematology analyses, whole blood (1 ml) will be collected with vacutainers containing K3EDTA as an anticoagulant.
Hematology samples are analyzed by automated (ADVIA™ 120 Hematology System, Siemens Medical Solutions Diagnostics, Tarrytown, NY) analyses. Disposition will be recorded on the sample processing form.

[9] = Rat tolerance of BisEDT (inhalation, IV, oral); details: 100 μg/kg inhalation and IV and 250 μg/kg oral, single dose
Escherichia coli = details: cited from earlier work
[10] = Phase 1 human clinical studies, topical administration; format: in vivo; details: humans
Klebsiella pneumoniae = assay: Broth microdilution MIC (Example 12)
Acinetobacter baumannii [11] = assay: Broth microdilution MIC (Example 12)
[12] = dogs Group 2 (target 50 μg/kg; lung deposited 55-56 ug/kg)
[13] = E. coli ATCC 25922, QC organism

## CC(S)C(C)S.[Bi] (stereo not shown) [BisBDT, bismuth-2,3-butanedithiol]
[1]
  bactericidal activity: not bactericidal
  effect of CF patient sputum on bactericidal activity: partially inhibited
[1]; PA01, 4 μg/mL, 10% CF sputum, 3-6 hours
  more surviving in cultures with sputum: 0.5-0.8 log CFU/mL
[1]; PA01, 4 μg/mL, absence of sputum, 6 hour assay
  killing over the assay: about 1 log
[1]; PA01, 20 μg/mL, with and without sputum
  time to sterilization below the limit of detection: ≤ 5 h
S. aureus ATCC 29213 [2]
  Expected MIC: goal: 0.25 µg/mL
[3]
  reduction in viable biofilm cells: 5 log
Acinetobacter baumannii [4]
  MIC: 0.5 µg/mL
[5]
  MIC: 4 µg/mL
[6]
  MIC values (range across isolates): 0.25 to 1 µg/mL
S. aureus ATCC 29213 [7]
  MIC 24 hr: 1^a

## C1C[S][Bi]([S]CC[S][Bi]2[S]CC[S]2)[S]1 [BisEDT, bismuth-1,2-ethanedithiol]
[1]
  bactericidal activity: not bactericidal
  effect of CF patient sputum on bactericidal activity: partially inhibited
S. aureus ATCC 29213 [2]
  Expected MIC: goal: 0.25 to 0.5 µg/mL
Pseudomonas aeruginosa
  MIC, QC range: (0.5-4) μg/mL
P. aeruginosa; Table 24
  MIC, CLSI QC range: (0.5-4)^2 μg/mL
P. aeruginosa; Table 26
  MIC, CLSI QC range: (0.5-4) μg/mL
[8]; [12]
  HGB: 15.6 g/dL and 15.0 g/dL and 14.2 g/dL and 16.4 g/dL and 14.3 g/dL
  LUC: 0.01 ^3/uL and 0.02 ^3/uL
  MCH: 22.8 pg and 23.2 pg and 22.7 pg and 22.3 pg and 21.9 pg
  MCHC: 34.1 g/dL and 34.9 g/dL and 33.4 g/dL and 34.4 g/dL and 33.2 g/dL
  MONO: 0.63 ^3/uL and 0.67 ^3/uL and 0.53 ^3/uL and 0.50 ^3/uL and 0.51 ^3/uL
[8]; dogs Group 4 (lung deposited 176-197 ug/kg)
  LUC: 0.01 ^3/uL and 0.02 ^3/uL
[9]
  tolerability: tolerated
Escherichia coli; [13]
  MIC, QC range: (0.5-4)^1 μg/mL
[10]; administered topically for 6 hours
  concentration well-tolerated: up to 2500 μg/cm^2
[10]; topical, over 21 days continuous exposure to normal and abraded skin
  concentration tolerated: up to 75 μg/cm^2

## C[C@@H](O)[C@H]1C(=O)N2C(C(=O)O)=C(S[C@@H]3CN[C@H](C(=O)N(C)C)C3)[C@H](C)[C@H]12 [MEM]
Klebsiella pneumoniae; K. pneumoniae ATCC BAA-1705, QC organism
  MIC: 8 µg/mL (≈ 20.9 µM)
Klebsiella pneumoniae; Klebsiella pneumoniae ATCC BAA-1705, ESBL/KPC
  MIC: 8 µg/mL (≈ 20.9 µM)
Klebsiella pneumoniae; Klebsiella pneumoniae CDC 112, KPC
  MIC: >8 µg/mL
Klebsiella pneumoniae; Klebsiella pneumoniae CDC 113, ESBL/KPC
  MIC: >8 µg/mL
Klebsiella pneumoniae; Klebsiella pneumoniae CDC 115, ESBL/KPC
  MIC: >8 µg/mL
Klebsiella pneumoniae; Klebsiella pneumoniae CDC 120, ESBL/KPC
  MIC: >8 µg/mL
Klebsiella pneumoniae; Klebsiella pneumoniae CDC 126, ESBL/KPC
  MIC: 4 µg/mL (≈ 10.4 µM)
Klebsiella pneumoniae; Klebsiella pneumoniae CDC 129, ESBL/KPC
  MIC: 8 µg/mL (≈ 20.9 µM)
Klebsiella pneumoniae; Klebsiella pneumoniae CDC 135, ESBL/VIM
  MIC: 1 µg/mL (≈ 2.61 µM)
Klebsiella pneumoniae; Klebsiella pneumoniae CDC 138, ESBL/NDM
  MIC: >8 µg/mL
Klebsiella pneumoniae; Klebsiella pneumoniae CDC 158, ESBL/NDM/OXA
  MIC: >8 µg/mL
Klebsiella pneumoniae; Klebsiella pneumoniae MMX 9029, ESBL
  MIC: 0.015 µg/mL (≈ 0.0391 µM)
Pseudomonas aeruginosa
  MIC, QC range: (0.12-1) μg/mL
P. aeruginosa; Table 24
  MIC, CLSI QC range: (0.12-1) μg/mL
P. aeruginosa; Table 26
  MIC, CLSI QC range: (0.12-1) μg/mL
Escherichia coli; [13]
  MIC, QC range: (0.008-0.06) μg/mL
Escherichia coli; E. coli ATCC 35218, QC organism
  MIC, QC range: (0.008-0.06) μg/mL
Acinetobacter baumannii [11]; Acinetobacter baumannii CDC 273, ESBL/OXA
  MIC: >8 µg/mL
Acinetobacter baumannii [11]; Acinetobacter baumannii CDC 274, ESBL/OXA
  MIC: >8 µg/mL
Acinetobacter baumannii [11]; Acinetobacter baumannii CDC 275, ESBL/OXA
  MIC: >8 µg/mL
Acinetobacter baumannii [11]; Acinetobacter baumannii CDC 277, ESBL/OXA
  MIC: >8 µg/mL
Acinetobacter baumannii [11]; Acinetobacter baumannii CDC 284, ESBL/OXA
  MIC: >8 µg/mL
Acinetobacter baumannii [11]; Acinetobacter baumannii CDC 307, OXA
  MIC: 8 µg/mL (≈ 20.9 µM)
Acinetobacter baumannii [11]; Acinetobacter baumannii CDC 308, ESBL/OXA
  MIC: 8 µg/mL (≈ 20.9 µM)
Acinetobacter baumannii [11]; Acinetobacter baumannii CDC 311, OXA
  MIC: >8 µg/mL
Acinetobacter baumannii [11]; Acinetobacter baumannii CDC 312, OXA
  MIC: 4 µg/mL (≈ 10.4 µM)
Acinetobacter baumannii [11]; Acinetobacter baumannii CDC 313, ESBL/OXA
  MIC: >8 µg/mL
Acinetobacter baumannii [11]; Acinetobacter baumannii NCTC 13304, OXA
  MIC: >8 µg/mL
